Assay results taken from patent US12201610B2, “Compositions comprising aticaprant” (Janssen Pharmaceuticals, Inc., priority 2022, dated 2025).
Like-named read-outs stand apart in the source and are kept apart here. Marks after values point to notes of the source that are not given here.

Experiments:
Assay type in all cases: in vivo, human
subjects with MDD [1] = assay: SIGH-A score (Example 6); settings: 10 mg; Treatment Week 6; 59 subjects analyzed
Source text: v. To investigate the effect of aticaprant on symptoms of anxiety using the HAM-A and on core symptoms of anxiety using the HAM-A6 subscale.
(§1) • (i) Depression: Montgomery-Åsberg Depression Rating Scale (MADRS), Clinical Global Impression-Severity (CGI-S), Symptoms of Major Depressive Disorder Scale (SMDDS), and Self-assessment of treatment experience (SATE) • (ii) Anhedonia: Snaith-Hamilton Pleasure Scale (SHAPS) • (iii) Anxiety: Structured Interview Guide for the Hamilton Anxiety scale (SIGH-A) and HAM-A6 • (iv) Effects on Cognition: The Cognitive and Physical Functioning Questionnaire (CPFQ) • (v) Safety assessments

subjects with MDD [2] = assay: SMDDS total score (Example 6); settings: 10 mg; Treatment Week 6; 59 subjects analyzed
Source text: SMDDS is a subjective rating of the patient. The SMDDS is a 16-item PRO measure. Each item is rated by the subject according to a 5-point Likert scale. Subjects respond to each question using a rating scale between 0 (“Not at all” or “Never”) to 4 (“Extremely” or “Always”). The total score ranges […]. The SMDDS uses a 7-day recall period and verbal rating scales. Higher score indicates more severe depressive symptomatology.
iv. To investigate the effect of aticaprant on symptoms of depression using the Clinical Global Impression-Severity (CGI-S), the patient reported Symptoms of Major Depressive Disorder Scale (SMDDS) and the self-assessment of treatment experience (SATE).
as §1

[3] = Phase 1 PK Part 2: relative bioavailability, dose proportionality, food effect of milled API tablet
Procedure: This is a Phase 1, open-label, single dose, multicenter, 4-part study in healthy adult participants.
Potential participants will be screened from Day −28 to Day −2 to determine participants' eligibility for study participation. For Part 1, qualified participants will be admitted on Day −1 of each treatment period and will remain in-house for the total duration of the treatment (Day −1 until Day 5, with single-dose treatment on Day 1 and 96 hours of PK), whereas for Part 2, PK sampling will be done up to 120 hours (Day 6). Each dosed participant will have a safety follow-up on Day 10 to Day 14 after last dose of the study intervention.
The Part 2 of the study involves determination of relative bioavailability for tablet (Formulation Concept 2, i.e., milled (microfine) aticaprant formulation; see Table 10) and capsule formulations (see Example 6, study design, for description of capsule formulation) and dose proportionality and food effect for tablet formulation (Formulation Concept 2) in healthy adult participants (FIG. 26). Part 2 will consist of Subpart 2A and Subpart 2B consisting of a total of 4 periods. […] Participants will be assigned to 1 of 6 treatment sequences (Table 55) and will be administered the 3 treatments in a 3-way crossover. The same 24 participants who complete Subpart 2A will be enrolled in Subpart 2B. Subpart 2B consists of a fourth period to evaluate the food effect of a single dose of 10 mg aticaprant administered as 1×10 mg oral tablet (Formulation Concept 2) under fed conditions (Treatment H; Tables 54 and 56). A preliminary PK analysis will be conducted at the end of the food effect part (Subpart 2B) for all the periods from Part 2 and will include the food effect data.
For each individual participant, there will be a washout period of at least 7 days for Part 1 and at least 8 days for Part 2 between subsequent intakes of the study intervention. Day 1 of a treatment period (day of study intervention intake) is the first day of the washout period (also in between the study parts, if applicable).
Participants will be fasting in Part 1A and Part 2A. Participants will have been fed in Parts 1B and 2B. For a fasted condition, participants will fast (nothing to cat or drink except noncarbonated water) overnight for at least 10 hours before and until 4 hours after study intervention administration during each fasted treatment period. Approximately, 4 hours post-dose and after the 4-hour PK sampling, a standard lunch will be served at the study-site. Intake of water is allowed until 2 hours before the intake of the study intervention. Thereafter, water intake is only allowed for study intervention intake and for breakfast, if applicable. Drinking of water is allowed ad libitum from approximately 2 hours after dosing. For a fed condition, participants will consume, after an overnight fast (at least 10 hours), a standardized high-fat breakfast within a 20-minute period. […] Study intervention will be administered approximately 30 minutes after the start of the breakfast.
In Parts 1 and 2, plasma concentrations will be determined for aticaprant. Blood samples for determination of plasma concentrations of aticaprant will be collected predose and at the postdose time points starting on Day 1 as indicated in the Tables 57-58.
The following plasma PK parameters of aticaprant will be determined. A noncompartmental model with extravascular input will be used for the pharmacokinetic analysis.
Based on the individual concentration-time data, using the actual sampling times, the following PK parameters will be derived for aticaprant: […]

[4] = Dose proportionality: Treatment G (5 mg milled API tablet normalized to 10 mg, Test)/Treatment F (10 mg, Reference), fasting
[5] = Food effect: Treatment H (high-fat diet, Test)/Treatment F (fasted, Reference), 10 mg milled API tablet
[6] = Relative BA: Treatment F (10 mg milled API tablet, Test)/Treatment E (2 × 5 mg capsule, Reference), fasting
[7] = Treatment E: 2 × 5 mg oral capsule, fasting, mean
[8] = Treatment F: 1 × 10 mg Formulation Concept 2 (milled API tablet), fasting, mean (SD)
[9] = Treatment G (1 × 5 mg Formulation Concept 2, fasting), dose normalized to 10 mg, mean (SD)
[10] = Treatment G: 1 × 5 mg Formulation Concept 2 (milled API tablet), fasting, mean
[11] = Treatment H: 1 × 10 mg Formulation Concept 2 (milled API tablet), after high-fat breakfast, mean

Cc1cc(C)cc(C2CCCN2Cc2ccc(Oc3ccc(C(N)=O)cc3F)cc2)c1 (stereo not drawn) [aticaprant, 3-fluoro-4-4-2-(3,5-dimethylphenyl)pyrrolidin-1-yl-methylphenoxybenzamide]
Change from Treatment Baseline in SIGH-A score, Arithmetic Mean (SD) (subjects with MDD [1]): −5.85 ± 5.369 scores on a scale
Change from Treatment Baseline in SMDDS Total Score, Arithmetic Mean (SD) (subjects with MDD [2]): −8.03 ± 9.957 Scores on a scale
Geometric Mean Cmax ([3]; Dose proportionality, completers, Treatment G (Test): 1 × 5 mg Formulation Concept 2, fasting, Dose Normalized to 10 mg): 32.5 ng/mL
Ratio of Geometric Means, AUClast [3, 4]: 104.15%
Ratio of Geometric Means, AUC∞ [3, 4]: 106.40%
Ratio of Geometric Means, Cmax [3, 4]: 105.13%
Ratio of Geometric Means, AUClast [3, 5]: 134.90%
Ratio of Geometric Means, AUC∞ [3, 5]: 135.55%
Ratio of Geometric Means, Cmax [3, 5]: 107.30%
Ratio of Geometric Means, AUClast [3, 6]: 94.31%
Ratio of Geometric Means, AUC∞ [3, 6]: 93.66%
Ratio of Geometric Means, Cmax [3, 6]: 102.30%
% AUC∞, ex [3, 7]: 5.02%
CL/F [3, 7]: 34.8 L/h
λz [3, 7]: 0.024 h⁻¹
% AUC∞, ex [3, 8]: 5.50 (3.17) %
CL/F [3, 8]: 35.8 (12.1) L/h
Cmax [3, 8]: 32.4 (7.39) ng/mL
λz [3, 8]: 0.024 (0.007) 1/h
AUClast, G Dose Normalized [3, 9]: 314 (160) h * ng/mL
AUC∞, G Dose Normalized [3, 9]: 308 (74.1)^a h * ng/mL
Cmax, G Dose Normalized [3, 9]: 34.7 (11.6) ng/mL
% AUC∞, ex [3, 10]: 6.93%
CL/F [3, 10]: 34.7 L/h
λz [3, 10]: 0.030 h⁻¹
% AUC∞, ex [3, 11]: 4.92%
CL/F [3, 11]: 27.0 L/h
Cmax [3, 11]: 34.0 ng/mL
λz [3, 11]: 0.025 h⁻¹
AUC(0-t) ([3]; human, plasma, oral, 5 mg, Dose proportionality, completers, Treatment G (Test): 1 × 5 mg Formulation Concept 2, fasting, Dose Normalized to 10 mg, read-out: Geometric Mean AUClast): 285 ng·h/mL
AUC(0-inf) ([3]; human, plasma, oral, 5 mg, Dose proportionality, completers, Treatment G (Test): 1 × 5 mg Formulation Concept 2, fasting, Dose Normalized to 10 mg, read-out: Geometric Mean AUC∞): 296 ng·h/mL
half-life ([3]; human, plasma, oral, 5 mg, Treatment G: 1 × 5 mg Formulation Concept 2 (milled API tablet), fasting, mean): 26.6 h
AUC(0-t) ([3]; human, plasma, oral, 5 mg, Treatment G: 1 × 5 mg Formulation Concept 2 (milled API tablet), fasting, mean, read-out: AUClast): 157 ng·h/mL
AUC(0-inf) ([3]; human, plasma, oral, 5 mg, Treatment G: 1 × 5 mg Formulation Concept 2 (milled API tablet), fasting, mean, read-out: AUC∞): 154 ng·h/mL
Cmax ([3]; human, plasma, oral, 5 mg, Treatment G: 1 × 5 mg Formulation Concept 2 (milled API tablet), fasting, mean, read-out: Cmax): 17.4 ng/mL
Tmax ([3]; human, plasma, oral, 5 mg, Treatment G: 1 × 5 mg Formulation Concept 2 (milled API tablet), fasting, median): 1 h
AUC(0-t) ([3]; human, plasma, oral, 10 mg, Dose proportionality, completers, Treatment F (Reference): 1 × 10 mg Formulation Concept 2, fasting, read-out: Geometric Mean AUClast): 274 ng·h/mL
AUC(0-inf) ([3]; human, plasma, oral, 10 mg, Dose proportionality, completers, Treatment F (Reference): 1 × 10 mg Formulation Concept 2, fasting, read-out: Geometric Mean AUC∞): 279 ng·h/mL
Cmax ([3]; human, plasma, oral, 10 mg, Dose proportionality, completers, Treatment F (Reference): 1 × 10 mg Formulation Concept 2, fasting, read-out: Geometric Mean Cmax): 30.9 ng/mL
AUC(0-t) ([3]; human, plasma, oral, 10 mg, Food effect, completers, Treatment F (Reference): 1 × 10 mg milled API tablet, fasted, read-out: Geometric Mean AUClast): 279 ng·h/mL
AUC(0-inf) ([3]; human, plasma, oral, 10 mg, Food effect, completers, Treatment F (Reference): 1 × 10 mg milled API tablet, fasted, read-out: Geometric Mean AUC∞): 280 ng·h/mL
Cmax ([3]; human, plasma, oral, 10 mg, Food effect, completers, Treatment F (Reference): 1 × 10 mg milled API tablet, fasted, read-out: Geometric Mean Cmax): 31.3 ng/mL
AUC(0-t) ([3]; human, plasma, oral, 10 mg, Food effect, completers, Treatment H (Test): 1 × 10 mg milled API tablet, high-fat diet, read-out: Geometric Mean AUClast): 377 ng·h/mL
AUC(0-inf) ([3]; human, plasma, oral, 10 mg, Food effect, completers, Treatment H (Test): 1 × 10 mg milled API tablet, high-fat diet, read-out: Geometric Mean AUC∞): 379 ng·h/mL
AUC(0-t) ([3]; human, plasma, oral, 10 mg, Relative BA, completers, Treatment F (Test): 1 × 10 mg Formulation Concept 2 (milled API tablet), fasting, read-out: Geometric Mean AUClast): 274 ng·h/mL
AUC(0-inf) ([3]; human, plasma, oral, 10 mg, Relative BA, completers, Treatment F (Test): 1 × 10 mg Formulation Concept 2 (milled API tablet), fasting, read-out: Geometric Mean AUC∞): 279 ng·h/mL
Cmax ([3]; human, plasma, oral, 10 mg, Relative BA, completers, Treatment F (Test): 1 × 10 mg Formulation Concept 2 (milled API tablet), fasting, read-out: Geometric Mean Cmax): 30.9 ng/mL
half-life ([3]; human, plasma, oral, 10 mg, Treatment F: 1 × 10 mg Formulation Concept 2 (milled API tablet), fasting, mean (SD)): 31 h
AUC(0-t) ([3]; human, plasma, oral, 10 mg, Treatment F: 1 × 10 mg Formulation Concept 2 (milled API tablet), fasting, mean (SD), read-out: AUClast): 297 ng·h/mL
AUC(0-inf) ([3]; human, plasma, oral, 10 mg, Treatment F: 1 × 10 mg Formulation Concept 2 (milled API tablet), fasting, mean (SD), read-out: AUC∞): 318 ng·h/mL
Tmax ([3]; human, plasma, oral, 10 mg, Treatment F: 1 × 10 mg Formulation Concept 2 (milled API tablet), fasting, median (range)): 1.5 h
half-life ([3]; human, plasma, oral, 10 mg, Treatment H: 1 × 10 mg Formulation Concept 2 (milled API tablet), after high-fat breakfast, mean): 30.8 h
AUC(0-t) ([3]; human, plasma, oral, 10 mg, Treatment H: 1 × 10 mg Formulation Concept 2 (milled API tablet), after high-fat breakfast, mean, read-out: AUClast): 388 ng·h/mL
AUC(0-inf) ([3]; human, plasma, oral, 10 mg, Treatment H: 1 × 10 mg Formulation Concept 2 (milled API tablet), after high-fat breakfast, mean, read-out: AUC∞): 388 ng·h/mL
Tmax ([3]; human, plasma, oral, 10 mg, Treatment H: 1 × 10 mg Formulation Concept 2 (milled API tablet), after high-fat breakfast, median): 2 h
AUC(0-t) ([3]; human, plasma, po, 10 mg, Relative BA, completers, Treatment E (Reference): 2 × 5 mg oral capsule, fasting, read-out: Geometric Mean AUClast): 291 ng·h/mL
AUC(0-inf) ([3]; human, plasma, po, 10 mg, Relative BA, completers, Treatment E (Reference): 2 × 5 mg oral capsule, fasting, read-out: Geometric Mean AUC∞): 297 ng·h/mL
Cmax ([3]; human, plasma, po, 10 mg, Relative BA, completers, Treatment E (Reference): 2 × 5 mg oral capsule, fasting, read-out: Geometric Mean Cmax): 30.2 ng/mL
half-life ([3]; human, plasma, po, 10 mg, Treatment E: 2 × 5 mg oral capsule, fasting, mean): 30.5 h
AUC(0-t) ([3]; human, plasma, po, 10 mg, Treatment E: 2 × 5 mg oral capsule, fasting, mean, read-out: AUClast): 308 ng·h/mL
AUC(0-inf) ([3]; human, plasma, po, 10 mg, Treatment E: 2 × 5 mg oral capsule, fasting, mean, read-out: AUC∞): 307 ng·h/mL
Cmax ([3]; human, plasma, po, 10 mg, Treatment E: 2 × 5 mg oral capsule, fasting, mean, read-out: Cmax): 31.7 ng/mL
Tmax ([3]; human, plasma, po, 10 mg, Treatment E: 2 × 5 mg oral capsule, fasting, median): 2 h
